Assay results taken from patent US7468462B2, “Therapeutic agents for the treatment of cancer, metabolic diseases and skin disorders” (Auspex Pharmaceuticals, priority 2004, dated 2008).

Molecular target: T1, RAR-α (Homo sapiens, UniProt P10276)
T1 construct: The Plasmid pGEG-hRAR-α for full-length RAR-α expression; made in house; host or cells: E. coli BL21 (DE3)
T1 sequence (P10276 1-462): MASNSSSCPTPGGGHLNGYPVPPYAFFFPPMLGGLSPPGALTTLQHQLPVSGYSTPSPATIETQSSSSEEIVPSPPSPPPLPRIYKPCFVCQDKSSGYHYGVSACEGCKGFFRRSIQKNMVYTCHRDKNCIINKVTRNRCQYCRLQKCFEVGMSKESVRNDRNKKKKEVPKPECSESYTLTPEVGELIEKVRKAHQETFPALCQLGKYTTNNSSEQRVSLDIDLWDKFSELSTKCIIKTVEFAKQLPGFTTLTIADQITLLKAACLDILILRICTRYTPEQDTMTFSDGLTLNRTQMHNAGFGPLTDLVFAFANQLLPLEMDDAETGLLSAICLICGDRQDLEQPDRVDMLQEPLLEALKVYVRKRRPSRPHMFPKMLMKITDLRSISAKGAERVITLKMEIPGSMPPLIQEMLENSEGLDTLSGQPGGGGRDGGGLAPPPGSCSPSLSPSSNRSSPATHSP
Assay: Competitive radioligand (tritium labeled tRA) hydroxylapatite binding assay in E. coli expressed RAR-α
Settings: read-out: Kd (mircomolar)
Method: After correcting for non-specific binding, IC50 values were determined.

Row | Kd | Compound
1 | 16 µM | COc1ccc(-c2ccc3cc(C4=C(O)CCC4=O)ccc3c2)cc1C12CC3CC(CC(C3)C1)C2 [Example 8, 2-[6-(3-Adamantan-1-yl-4-methoxyphenyl)-naphthalen-2-yl]-3-hydroxy-cyclopent-2-enone]
2 | 0.3 µM | COc1ccc(-c2ccc3cc(C(=O)O)ccc3c2)cc1C12CC3CC(CC(C3)C1)C2 [Adapalene]
